Data set [1] deals with hypoxia-responsive element (HRE) of VEGF promoter. Put plainly: HRE-luciferase reporter of VEGF promoter activity in HRE-Luc MB-231 cells. It counts as cell-based, human. From the text: To determine whether lowering CXCR4 levels might affect VEGF transcription compared to HIF-1α the hypoxia-reporting luciferase/LacZ plasmid from Dr. Van Meir's laboratory was used as a reporter system to detect hypoxia-responsive element (HRE) of VEGF promoter activity (Post, D. E. and Van Meir, E. G. (2001) Gene Ther 8: 1801-1807). The sequence of HIF-1α siRNA was 5′-UUCAAGUUGGAAUUGGUAGdTdT-3′ (SEQ. ID No. 3). Pooled cell clones were created with MDA-MB-231 cells stably transfected with this plasmid (called HRE-Luc MB-231). Unexpectedly, HRE activity in normoxia was moderately high in MDA-MB-231 cells that have high CXCR4 levels in normoxia (FIG. 6, left), which was not observed in other cell lines with low CXCR4 and HIF-1 levels (LN229, U87, 9L, and MDA-MB-435). This moderately high HRE activity in MDA-MB-231 cells was suppressed by CXCR4 siRNA or HIF-1α siRNA. […] As expected, the HRE activity increased 2.5-fold by hypoxia treatment (1% oxygen and 5% CO2 in nitrogen). This elevated HRE activity was again suppressed by siRNA for CXCR4 or HIF-1α (FIG. 6, right).
In general terms: A reporter such as luciferase makes a cellular process visible.

Data set [2] concerns CXCR4. Put plainly: CXCR4 protein levels after treatment of cells. In kind it is cell-based, human.
Data set [3] deals with human umbilical vein endothelial cells (HUVECs). Put plainly: endothelial capillary tube formation assay. It counts as cell-based. Particulars: 100 nM; SDF-1 100 ng/ml; 18 hours. As to the method: The anti-angiogenic effect of test compounds was measured by analyzing endothelial cell growth and tube formation. The angiogenic effect of SDF-1 (100 ng/ml) on capillary formation by human umbilical vein endothelial cells (HUVECs) was examined in vitro using Matrigel-coated 24-well plates precoated with Matrigel and incubated for 18 hours. The angiogenic effect of SDF-1 was inhibited by either 100 nM TN14003 (peptide-based CXCR4 antagonist) or WZZL811S treatment (FIG. 14a, graph FIG. 14b).

The target of data set [4] is T1, CXCR4 (Homo sapiens, UniProt P61073). Put plainly: SDF-1-stimulated Akt phosphorylation in MDA-MB-231 cells (western blot). It counts as cell-based. Also noted: endogenous in cells; host or cells: MDA-MB-231. Particulars: for concentration blocking Akt activation: 100 ng/ml SDF-1, 30 minutes; for block of SDF-1-stimulated phosphorylation of Akt: MDA-MB-231 cells, 100 ng/ml SDF-1, 30 min, dose-dependent. As to the method:
FIG. 2 is an image of a western blot showing phosphorylation of Akt. Incubating MDA-MB-231 cells with 100 ng/ml of SDF-1 for 30 min stimulated phosphorylation of Akt. This activation was blocked with TN14003 or AMD3100 in a dose-dependent manner.
CXCR4/SDF-1 interaction activates PI3K/Akt and Ras/Raf/MEK/Erk pathways in a Gαi protein (PTX-sensitive)-dependent manner. Experiments were conducted to determine the effect of blocking CXCR4/SDF-1 interaction by either TN14003 or AMD3100 at different concentrations (0, 0.01, 0.1, 1, 10, 100, 1000 nM) on phosphorylations of Akt and Erk1/2 signaling. Incubating cells with 100 ng/ml of SDF-1 for 30 minutes activated Akt. […] However, the increase in Erk1/2 phosphorylation by SDF-1 was not significant as the increase in Akt phosphorylation.
(§1) WZZL811S was tested in a matrigel invasion assay to determine whether it can inhibit CXCR4/SDF-1-mediated invasion.
(In general: A western blot detects proteins with antibodies after separation by electrophoresis.)

The subject of another data set is MT-4 cells. The conditions noted are these: cited from earlier work.
The subject of another data set is MDA-MB-231 cells. Put plainly: matrigel invasion assay, CXCR4/SDF-1-mediated invasion. It counts as cell-based, human. Particulars: 2 nM. As to the method:
Lowering CXCR4 mRNA levels by siRNAs inhibited CXCR4/SDF-1-mediated invasion as measured by a matrigel invasion assay. The CXCR4 ligand, SDF-1 (400 ng/ml) was added to the lower chamber to attract CXCR4-positive breast cancer cells to migrate through the matrigel. The invasion of MDA-MB-231 cells transfected with siRNA1 decreased to 39±4% of the control cells, 51±8% with siRNA2, and only 16±6% with both siRNA1+2 (FIG. 3A).
as §1

Another data set concerns HIV. Particulars: MT-4 cells; read-out: concentration required for 50% protection of HIV-induced cytopathogenicity; cited from earlier work.
A further data set has as its system 686LN cells. Put plainly: Head & Neck cancer metastasis model, 686LN cells i.v., FDG-PET. It counts as in vivo, mice. Particulars: 20 mg/mouse/twice weekly, thirty days. As to the method:
The metastatic 686LN cells were injected intravenously through the tail vein to generate experimental animal models for Head & Neck cancer metastasis, modulated via CXCR4. […] These 3-D projection images show lung metastases well (bone mets and liver mets were apparent in axial section images of mice in control groups, data not shown).

In data set [5] the target is T1, CXCR4. As to the kind of experiment: SDF-1-stimulated Erk1/2 phosphorylation. In kind it is cell-based. Particulars: data not shown. Also noted: endogenous in cells; host or cells: MDA-MB-231. Here is the method: CXCR4/SDF-1 interaction activates PI3K/Akt and Ras/Raf/MEK/Erk pathways in a Gαi protein (PTX-sensitive)-dependent manner. Experiments were conducted to determine the effect of blocking CXCR4/SDF-1 interaction by either TN14003 or AMD3100 at different concentrations (0, 0.01, 0.1, 1, 10, 100, 1000 nM) on phosphorylations of Akt and Erk1/2 signaling.

Data set [6] addresses T1, CXCR4. Put plainly: competition assay using biotin-labeled TN14003 on tumor cells. In kind it is binding. Also noted: endogenous in cells; probably MDA-MB-231. From the text: In a separate embodiment, a process for screening potential drug candidates is provided. The process includes providing a labeled peptide-based CXCR4 antagonist that has a detectable signal when bound to a CXCR4 receptor; contacting a CXCR4 receptor with at least one test molecule at a known concentration to form a test sample; contacting the test sample with the peptide-based antagonist; separately, contacting the peptide-based antagonist to a sample not including any test molecule to form a control sample; and comparing the signal from the test sample to the signal from the control sample. In a specific sub-embodiment, the peptide-based antagonist is derived from TN14003 (described in PCT Publication No. WO 04/087068 to Emory University). In a further subembodiment, the antagonist is labeled with a biotin molecule and the signal is elicited when the biotin-labeled antagonist is contacted with a streptavadin-conjugated signal molecule.
The signal elicited by binding of the CXCR4 antagonist and the receptor can be a fluorescent signal. […]
The peptide-based antagonist is typically a molecule with high affinity for the receptor. […] In this embodiment, the test compound is incubated with the receptor at varying concentrations and the signal elicited after binding of the labeled antagonist is measured and compared to control, as well as to each other. […]

The conditions of data set [7]: clinical trials; cited from earlier work.

T1 sequence (P61073 whole entry): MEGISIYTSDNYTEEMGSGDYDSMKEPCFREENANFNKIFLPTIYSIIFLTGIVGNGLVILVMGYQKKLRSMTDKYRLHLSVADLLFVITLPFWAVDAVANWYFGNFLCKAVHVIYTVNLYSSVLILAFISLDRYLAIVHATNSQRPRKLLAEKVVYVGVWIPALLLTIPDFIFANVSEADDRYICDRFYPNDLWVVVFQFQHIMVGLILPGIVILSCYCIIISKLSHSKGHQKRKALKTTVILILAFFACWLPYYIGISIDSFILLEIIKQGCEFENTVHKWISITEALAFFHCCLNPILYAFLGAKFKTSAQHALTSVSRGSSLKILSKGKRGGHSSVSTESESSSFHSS

Turning to “HIF-1α siRNA: HIF-1α siRNA, 5′-UUCAAGUUGGAAUUGGUAGdTdT-3′ (SEQ. ID No. 3) (guide UUCAAGUUGGAAUUGGUAGNN; further chemistry not given here)”, the HRE activity entry in [1] (hypoxia (1% oxygen)) and in [1] (normoxia) was “suppressed” each time.

For the compound TN14003, in the data set with CXCR4 [2], the “effect on CXCR4 protein levels” value was “did not affect”. Besides, the “angiogenic effect of SDF-1 on capillary tube formation” value in [3] is “inhibited”. At CXCR4 [4], the “concentration blocking Akt activation” value is reported as “sub-nano molar” and the “block of SDF-1-stimulated phosphorylation of Akt” value is “blocked”. For the same compound, the “concentration leading to 50% toxicity” value in the data set on MT-4 cells is 410 µM. Further, the “block of CXCR4/SDF-1 mediated invasion” value with MDA-MB-231 cells is reported as “blocked”. Besides, the EC50 in the data set on HIV was 0.6 nM. Also, in the data set with 686LN cells, the metastasis to organs result is “failed to metastasize to any organs”. In addition, the “concentration attenuating Erk1/2 phosphorylation” value at CXCR4 [5] is reported as “sub-nano molar”.

As to `C1=CC(CN2CCCNCCNCCCNCC2)CC=C1CN1CCCNCCNCCCNCC1` (centres unmarked) [AMD3100], the “effect on CXCR4 protein levels” value in the data set on CXCR4 [2] was “did not affect”. In addition, the “concentration needed to compete against biotin-labeled TN14003” value on CXCR4 [6] is 10 µM. Further, at CXCR4 [4], the “concentration blocking Akt activation” value was “a few nano molar” and the “block of SDF-1-stimulated phosphorylation of Akt” value was “blocked”. Besides, the “side effect in clinical study” value in data set [7] was “cardiac-related side effect”. The “concentration attenuating Erk1/2 phosphorylation” value on CXCR4 [5] was found to be 100 nM.

These data come from patent US8080659B2, “CXCR4 antagonists including diazine and triazine structures for the treatment of medical disorders” (Emory University, priority 2006, dated 2011).
